The source made the active and inactive calls. The calls are words filed in the database; no cut-off is given here.
Assays:
Sindbis virus = assay: Antiviral activity against Sindbis virus infected in african green monkey Vero cells assessed as reduction of viral replication; format: functional, organism-based
Felid alphaherpesvirus 1 = assay: Antiviral activity against Feline herpesvirus infected in cat CRFK cells assessed as reduction of viral replication; format: functional, organism-based; conditions: Felid alphaherpesvirus 1, CRFK
[1] = Cytotoxicity against african green monkey Vero 76 cells assessed as reduction of cell viability; format: cell-based; conditions: chlorocebus sabaeus
[2] = Selectivity index, ratio of CC50 for MDCK cells to EC50 for Influenza A virus H3N2; format: toxicity, cell-based; conditions: dog, read-out: Ratio CC50/EC50
[3] = Selectivity index, ratio of CC50 for cat CRFK cells to EC50 for Feline herpesvirus; format: toxicity, cell-based; conditions: read-out: Selectivity Index
Coxsackievirus B4 = assay: Antiviral activity against Coxsackievirus B4 virus infected in african green monkey Vero cells assessed as reduction of viral replication; format: functional, organism-based
Junin virus = assay: Antiviral activity against Junin virus infected in african green monkey Vero cells assessed as reduction of viral replication; format: functional, organism-based; conditions: Mammarenavirus juninense
Human respirovirus 3 = assay: Antiviral activity against Parainfluenza-3 virus infected in african green monkey Vero cells assessed as reduction of viral replication; format: functional, organism-based; conditions: Human respirovirus 3, Vero
[4] = Selectivity index, ratio of CC50 for african green monkey Vero 76 cells to EC50 for Rift Valley fever virus; format: toxicity, cell-based; conditions: read-out: Selectivity Index
[5] = Selectivity index, ratio of CC50 for MDCK cells to EC50 for Influenza B virus; format: toxicity, cell-based; conditions: dog, read-out: Ratio CC50/EC50
Rift Valley fever virus = assay: Antiviral activity against Rift Valley fever virus infected in african green monkey Vero 76 cells assessed as reduction of viral replication; format: functional, organism-based
Human alphaherpesvirus 1 = assay: Antiviral activity against HSV-1 infected in HEL assessed as reduction of viral replication; format: functional, organism-based
[6] = Cytotoxicity against african green monkey Vero cells assessed as minimum compound concentration required to cause microscopically detectable alteration of normal cell morphology; format: cell-based; conditions: chlorocebus sabaeus, read-out: Activity
Tacaribe virus = assay: Antiviral activity against Tacaribe virus infected in african green monkey Vero 76 cells assessed as reduction of viral replication; format: functional, organism-based; conditions: Mammarenavirus tacaribeense
Human alphaherpesvirus 2 = assay: Antiviral activity against HSV-2 infected in HEL assessed as reduction of viral replication; format: functional, organism-based
[7] = Selectivity index, ratio of CC50 for human Akata cells to EC50 for Epstein-Barr virus; format: toxicity, cell-based; conditions: read-out: Selectivity Index
Punta Toro virus = assay: Antiviral activity against Punta Toro virus infected in african green monkey Vero 76 cells assessed as reduction of viral replication; format: functional, organism-based
Vaccinia virus = assay: Antiviral activity against Vaccinia virus infected in human HeLa cells assessed as reduction of viral replication; format: functional, organism-based; conditions: Orthopoxvirus vaccinia
Influenza A virus [8] = assay: Antiviral activity against Influenza A virus H3N2 infected in MDCK cells assessed as reduction of viral replication; format: functional, organism-based
Feline coronavirus = assay: Antiviral activity against Feline coronavirus assessed as reduction of viral replication; format: functional, organism-based
Human gammaherpesvirus 4 = assay: Antiviral activity against Epstein-Barr virus infected in human Akata cells assessed as reduction of viral replication; format: functional, organism-based; conditions: human gammaherpesvirus 4, Akata
Dengue virus = assay: Antiviral activity against Dengue virus infected in african green monkey Vero cells assessed as reduction of viral replication; format: functional, organism-based
[9] = Selectivity index, ratio of CC50 for african green monkey Vero cells to EC50 for Dengue virus; format: toxicity, cell-based; conditions: read-out: Selectivity Index
Cowpox virus = assay: Antiviral activity against Cowpox virus infected in HFF cells assessed as reduction of viral replication; format: functional, organism-based
Pichinde virus = assay: Antiviral activity against Pichinde virus infected in african green monkey Vero cells assessed as reduction of viral replication; format: functional, organism-based
[10] = Cytotoxicity against african green monkey Vero cells assessed as reduction of cell viability; format: cell-based; conditions: chlorocebus sabaeus
Hepatitis B virus = assay: Antiviral activity against HBV infected in human HepG2(2.2.15) cells assessed as reduction of viral replication; format: functional, organism-based
[11] = Selectivity index, ratio of CC50 for MDCK cells to EC50 for Influenza A virus H5N1; format: toxicity, cell-based; conditions: dog, read-out: Ratio CC50/EC50
West Nile virus = assay: Antiviral activity against West Nile virus infected in african green monkey Vero cells assessed as reduction of viral replication; format: functional, organism-based
Influenza A virus [12] = assay: Antiviral activity against Influenza A virus H1N1 infected in MDCK cells assessed as reduction of viral replication; format: functional, organism-based
[13] = Selectivity index, ratio of CC50 for MDCK cells to EC50 for Influenza A virus H1N1; format: toxicity, cell-based; conditions: dog, read-out: Ratio CC50/EC50
Influenza B virus = assay: Antiviral activity against Influenza B virus infected in MDCK cells assessed as reduction of viral replication; format: functional, organism-based
[14] = test system: Venezuelan equine encephalitis virus; assay: Antiviral activity against Venezuelan equine encephalitis virus infected in african green monkey Vero cells assessed as reduction of viral replication; format: functional, organism-based
[15] = Selectivity index, ratio of CC50 for african green monkey Vero 76 cells to EC50 for Tacaribe virus; format: toxicity, cell-based; conditions: read-out: Selectivity Index
[16] = test system: Vesicular stomatitis virus; assay: Antiviral activity against Vesicular stomatitis virus infected in human HeLa cells assessed as reduction of viral replication; format: functional, organism-based
[17] = test system: Mammalian orthoreovirus 1; assay: Antiviral activity against Reovirus 1 infected in african green monkey Vero cells assessed as reduction of viral replication; format: functional, organism-based
[18] = Cytotoxicity against cat CRFK cells assessed as reduction of cell viability; format: cell-based, Felis catus
[19] = Selectivity index, ratio of CC50 for african green monkey Vero cells to EC50 for Junin virus; format: toxicity, cell-based; conditions: read-out: Selectivity Index
[20] = Selectivity index, ratio of CC50 for african green monkey Vero 76 cells to EC50 for Punta Toro virus; format: toxicity, cell-based; conditions: read-out: Selectivity Index
[21] = Selectivity index, ratio of CC50 for african green monkey Vero cells to EC50 for Pichinde virus; format: toxicity, cell-based; conditions: read-out: Selectivity Index
Influenza A virus [22] = assay: Antiviral activity against Influenza A virus H5N1 infected in MDCK cells assessed as reduction of viral replication; format: functional, organism-based
[23] = Cytotoxicity against human Akata cells assessed as reduction of cell viability; format: cell-based
[24] = Cytotoxicity against human HeLa assessed as minimum compound concentration required to cause microscopically detectable alteration of normal cell morphology; format: cell-based; conditions: HeLa cells, read-out: Activity
[25] = Cytotoxicity against MDCK cells assessed as reduction of cell viability; format: cell-based, Canis lupus familiaris; conditions: dog
Hepatitis C virus = assay: Antiviral activity against Hepatitis C virus infected in human AVA5 cells assessed as reduction of viral replication; format: functional, organism-based; conditions: Hepacivirus hominis
SARS-CoV = assay: Antiviral activity against SARS coronavirus infected in african green monkey Vero cells assessed as reduction of viral replication; format: functional, organism-based; conditions: Severe acute respiratory syndrome-related coronavirus
[26] = test system: Respiratory syncytial virus; assay: Antiviral activity against Respiratory syncytial virus infected in […] cells assessed as reduction of viral replication; format: functional, organism-based
Yellow fever virus = assay: Antiviral activity against Yellow fever virus infected in african green monkey Vero cells assessed as reduction of viral replication; format: functional, organism-based
[27] = Selectivity index, ratio of CC50 for african green monkey Vero cells to EC50 for Yellow fever virus; format: toxicity, cell-based; conditions: read-out: Ratio CC50/EC50
Cytomegalovirus = assay: Antiviral activity against Cytomegalovirus infected in HEL assessed as reduction of viral replication; format: functional, organism-based; conditions: Human betaherpesvirus 5
[28] = Selectivity index, ratio of CC50 for african green monkey Vero cells to EC50 for Measles virus; format: toxicity, cell-based; conditions: read-out: Ratio CC50/EC50
[29] = Selectivity index, ratio of minimum compound concentration required to cause microscopically detectable alteration of normal cell morphology for human HeLa cells to EC50 for Vaccinia virus; format: toxicity, cell-based; conditions: read-out: Selectivity Index
Measles morbillivirus = assay: Antiviral activity against Measles virus infected in african green monkey Vero cells assessed as reduction of viral replication; format: functional, organism-based
[30] = Cytotoxicity against HEL assessed as reduction of cell viability; format: cell-based; conditions: human, HEL cells
[31] = Selectivity index, ratio of CC50 for HEL to EC50 Cytomegalovirus

## Nc1ncc(Br)c2c1ncn2[C@@H]1C=C(CO)[C@@H](O)[C@H]1O
Sindbis virus
  Activity: inactive
Felid alphaherpesvirus 1
  EC50: 200 nM
[1]
  CC50: 23200 nM
[2]
  selectivity ratio: > 190
[3]
  selectivity ratio: 470
Coxsackievirus B4
  Activity: inactive
Junin virus
  EC50: 94 nM
Human respirovirus 3
  EC50: 500 nM
[4]
  selectivity ratio: 250
[5]
  selectivity ratio: < 7
Rift Valley fever virus
  EC50: < 94 nM
Human alphaherpesvirus 1
  Activity: inactive
[6]
  MCC: > 100 µM
Tacaribe virus
  EC50: < 94 nM
Human alphaherpesvirus 2
  Activity: inactive
[7]
  selectivity ratio: < 4.3
Punta Toro virus
  EC50: 250 nM
Vaccinia virus
  EC50: 500 nM
Influenza A virus [8]
  EC50: 1550 nM
Feline coronavirus
  Activity: inactive
Human gammaherpesvirus 4
  EC50: > 30 nM
Dengue virus
  EC50: 2900 nM
[9]
  selectivity ratio: 57
Cowpox virus
  Activity: inactive
Pichinde virus
  EC50: 1200 nM
[10]
  CC50: 15200 nM
Hepatitis B virus
  Activity: inactive
[11]
  selectivity ratio: > 310
West Nile virus
  Activity: inactive
Influenza A virus [12]
  EC50: < 94 nM
[13]
  selectivity ratio: > 2340
Influenza B virus
  EC50: > 160 nM
[14]
  Activity: inactive
[15]
  selectivity ratio: > 2000
[16]
  EC50: 400 nM
[17]
  Activity: inactive
[18]
  CC50: 94000 nM
[19]
  selectivity ratio: 160
[20]
  selectivity ratio: 140
[21]
  selectivity ratio: 24
Influenza A virus [22]
  EC50: 940 nM
[23]
  CC50: 130 nM
[24]
  MCC: ≥ 100 µM
[25]
  CC50: 1100 nM

## Nc1ncc(Br)c2c1ncn2[C@@H]1C[C@H](CO)[C@@H](O)[C@H]1O
[1]
  CC50: > 79000 nM
[4]
  selectivity ratio: > 5
[5]
  selectivity ratio: > 340
Rift Valley fever virus
  EC50: 58300 nM
Tacaribe virus
  EC50: 9900 nM
Vaccinia virus
  EC50: 230000 nM
Influenza A virus [8]
  EC50: > 290000 nM
Dengue virus
  EC50: 93000 nM
Hepatitis C virus
  Activity: inactive
[9]
  selectivity ratio: 2
[10]
  CC50: 70000 nM
[11]
  selectivity ratio: > 260
SARS-CoV
  Activity: inactive
West Nile virus
  Activity: inactive
Influenza A virus [12]
  EC50: > 290000 nM
Influenza B virus
  EC50: 840 nM
[26]
  Activity: inactive
[14]
  Activity: inactive
Yellow fever virus
  EC50: 19000 nM
[15]
  selectivity ratio: 7.9
[27]
  selectivity ratio: 9.7
Cytomegalovirus
  EC50: 3500 nM
[28]
  selectivity ratio: 4.3
[29]
  selectivity ratio: > 1.3
Measles morbillivirus
  EC50: 16000 nM
[30]
  CC50: 80000 nM
[31]
  Ratio CC50/EC50: 23
Influenza A virus [22]
  EC50: 1140 nM
[24]
  MCC: > 300 µM
[25]
  CC50: > 290000 nM

Source: ChEMBL document CHEMBL2057086, “3-Bromo-3-deazaneplanocin and 3-bromo-3-deazaaristeromycin: synthesis and antiviral activity” (Bioorg Med Chem Lett, 2012)
